This note sets out measurements from US8865756B2, “Inhibitors of HCV NS5A” (Presidio Pharmaceuticals, Inc., priority 2008, dated 2014).

The test system of this assay is HCV 1b_Huh-Luc/Neo-ET cell line persistently expressing a bicistronic genotype 1b replicon in Huh 7 cells. As to the kind of experiment: HCV replicon assay (luciferase readout). To be noted: Hepatitis C virus, Huh-7, 72 h, read-out: Inhibition of HCV genotype 1b. Format: cell-based. The method, then: Biological activity of the compounds of the invention was determined using an HCV replicon assay. The HCV 1b_Huh-Luc/Neo-ET cell line persistently expressing a bicistronic genotype 1b replicon in Huh 7 cells was obtained from ReBLikon GMBH. This cell line was used to test compound inhibition using luciferase enzyme activity readout as a measurement of compound inhibition of replicon levels.
On Day 1 (the day after plating), each compound is added in triplicate to the cells. Plates incubated for 72 h prior to running the luciferase assay. Enzyme activity was measured using a Bright-Glo Kit (cat. number E2620) manufactured by Promega Corporation. The following equation was used to generate a percent control value for each compound. % Control=(Average Compound Value/Average Control)*100
The EC50 value was determined using GraphPad Prism and the following equation: Y=Bottom+(Top−Bottom)/(1+10^((Log IC50−X)*HillSlope))
EC50 values of compounds are determined several times in the replicon assay.
Example compounds of the disclosed invention are illustrated in Tables 1-14 attached as appendices. The tables show inhibitory activity of many of the example compounds with respect to HCV 1b. […] The tables further provide mass spectrometry results for the synthesized example compounds.
`CC(C)(C)OC(=O)N[C@@H](C(=O)N1CCC[C@H]1c1ncc(C#Cc2ccc(-c3cnc([C@@H]4CCCN4C(=O)[C@H](NC(=O)OC(C)(C)C)c4ccccc4)[nH]3)cc2)[nH]1)c1ccccc1` [Compound 99]: the EC50 was under 0.001 µM.

`O=C(N[C@@H](C(=O)N1CCC[C@H]1c1ncc(C#Cc2ccc(-c3cnc([C@@H]4CCCN4C(=O)[C@H](NC(=O)C4CC4)c4ccccc4)[nH]3)cc2)[nH]1)c1ccccc1)C1CC1` [Compound 100]: the EC50 was under 0.001 µM.

In the case of `CC(C)(C)OC(=O)N1CCC[C@H]1c1ncc(C#Cc2ccc(-c3cnc([C@@H]4CCCN4C(=O)OC(C)(C)C)[nH]3)cc2)[nH]1` [Compound 101], the EC50 was 0.01 to 0.999 µM.

`O=C(N[C@@H](C(=O)N1CCC[C@H]1c1ncc(C#Cc2ccc(-c3cnc([C@@H]4CCCN4C(=O)[C@H](NC(=O)N4CCOCC4)c4ccccc4)[nH]3)cc2)[nH]1)c1ccccc1)N1CCOCC1` [Compound 102]: the EC50 was in the range of 0.001 to 0.0099 µM.

Turning to `CC(C)(C)OC(=O)NCC(=O)N1CCC[C@H]1c1ncc(C#Cc2ccc(-c3cnc([C@@H]4CCCN4C(=O)CNC(=O)OC(C)(C)C)[nH]3)cc2)[nH]1` [Compound 103], the EC50 was in the range of 0.01 to 0.999 µM.

Take `C[C@@H](NC(=O)OC(C)(C)C)C(=O)N1CCC[C@H]1c1ncc(C#Cc2ccc(-c3cnc([C@@H]4CCCN4C(=O)[C@@H](C)NC(=O)OC(C)(C)C)[nH]3)cc2)[nH]1` [Compound 104]: the EC50 was 0.001 to 0.0099 µM.

Take `CC(C)[C@@H](NC(=O)OC(C)(C)C)C(=O)N1CCC[C@H]1c1ncc(C#Cc2ccc(-c3cnc([C@@H]4CCCN4C(=O)[C@H](NC(=O)OC(C)(C)C)C(C)C)[nH]3)cc2)[nH]1` [Compound 105]: the EC50 lay in the range of 0.01 to 0.999 µM.

Regarding `CC(C)(C)OC(=O)NC(C)(C)C(=O)N1CCC[C@H]1c1ncc(C#Cc2ccc(-c3cnc([C@@H]4CCCN4C(=O)C(C)(C)NC(=O)OC(C)(C)C)[nH]3)cc2)[nH]1` [Compound 106], the EC50 is over 1 µM.

On to `CC(C)[C@@H](NC(=O)C1CC1)C(=O)N1CCC[C@H]1c1ncc(C#Cc2ccc(-c3cnc([C@@H]4CCCN4C(=O)[C@H](NC(=O)C4CC4)C(C)C)[nH]3)cc2)[nH]1` [Compound 107], for which the EC50 lay within 0.001 to 0.0099 µM.

Turning to `CC(=O)N[C@@H](C(=O)N1CCC[C@H]1c1ncc(C#Cc2ccc(-c3cnc([C@@H]4CCCN4C(=O)[C@H](NC(C)=O)c4ccccc4)[nH]3)cc2)[nH]1)c1ccccc1` [Compound 109], the EC50 was under 0.001 µM.

In the case of `COC(=O)N[C@@H](C(=O)N1CCC[C@H]1c1ncc(C#Cc2ccc(-c3cnc([C@@H]4CCCN4C(=O)[C@H](NC(=O)OC)c4ccccc4)[nH]3)cc2)[nH]1)c1ccccc1` [Compound 110], the EC50 was under 0.001 µM.

With `C[C@@H](NC(=O)C1CC1)C(=O)N1CCC[C@H]1c1ncc(C#Cc2ccc(-c3cnc([C@@H]4CCCN4C(=O)[C@@H](C)NC(=O)C4CC4)[nH]3)cc2)[nH]1` [Compound 111], the EC50 fell in the range of 0.001 to 0.0099 µM.

As to `O=C([C@H](O)c1ccccc1)N1CCC[C@H]1c1ncc(C#Cc2ccc(-c3cnc([C@@H]4CCCN4C(=O)[C@H](O)c4ccccc4)[nH]3)cc2)[nH]1` [Compound 112], the EC50 is under 0.001 µM.

For the molecule `O=C(NCC(=O)N1CCC[C@H]1c1ncc(C#Cc2ccc(-c3cnc([C@@H]4CCCN4C(=O)CNC(=O)C4CC4)[nH]3)cc2)[nH]1)C1CC1` [Compound 113], the EC50 lay in the range of 0.01 to 0.999 µM.

Consider `CC(C)[C@@H](NC(=O)OC(C)(C)C)C(=O)N1CCC[C@H]1C(=O)Nc1ccc(C#Cc2cnc([C@@H]3CCCN3C(=O)[C@H](NC(=O)OC(C)(C)C)C(C)C)[nH]2)cc1` [Compound 114], for which the EC50 fell in the range of 0.01 to 0.999 µM.

Consider `CC(C)(C)OC(=O)N[C@@H](C(=O)N1CCC[C@H]1C(=O)Nc1ccc(C#Cc2cnc([C@@H]3CCCN3C(=O)[C@H](NC(=O)OC(C)(C)C)c3ccccc3)[nH]2)cc1)c1ccccc1` [Compound 115], for which the EC50 is under 0.001 µM.

`CC(C)[C@@H](NC(=O)C1CC1)C(=O)N1CCC[C@H]1C(=O)Nc1ccc(C#Cc2cnc([C@@H]3CCCN3C(=O)[C@H](NC(=O)C3CC3)C(C)C)[nH]2)cc1` [Compound 116]: the EC50 lay in the range of 0.001 to 0.0099 µM.

As to `O=C(N[C@@H](C(=O)N1CCC[C@H]1C(=O)Nc1ccc(C#Cc2cnc([C@@H]3CCCN3C(=O)[C@H](NC(=O)C3CC3)c3ccccc3)[nH]2)cc1)c1ccccc1)C1CC1` [Compound 117], the EC50 is under 0.001 µM.

Turning to `CN1CCN(C(=O)N[C@@H](C(=O)N2CCC[C@H]2c2ncc(C#Cc3ccc(-c4cnc([C@@H]5CCCN5C(=O)[C@H](NC(=O)N5CCN(C)CC5)c5ccccc5)[nH]4)cc3)[nH]2)c2ccccc2)CC1` [Compound 118], the EC50 lay in the range of 0.01 to 0.999 µM.

In the case of `CC(C)(C)OC(=O)N[C@@H](C(=O)N1CCC[C@H]1C(=O)NCc1ccc(C#Cc2cnc([C@@H]3CCCN3C(=O)[C@H](NC(=O)OC(C)(C)C)c3ccccc3)[nH]2)cc1)c1ccccc1` [Compound 119], the EC50 is under 0.001 µM.

Consider `CC(C)[C@@H](NC(=O)OC(C)(C)C)C(=O)N1CCC[C@H]1C(=O)NCc1ccc(C#Cc2cnc([C@@H]3CCCN3C(=O)[C@H](NC(=O)OC(C)(C)C)C(C)C)[nH]2)cc1` [Compound 120], for which the EC50 was 0.01 to 0.999 µM.

Consider `O=C(N[C@@H](C(=O)N1CCC[C@H]1C(=O)NCc1ccc(C#Cc2cnc([C@@H]3CCCN3C(=O)[C@H](NC(=O)C3CC3)c3ccccc3)[nH]2)cc1)c1ccccc1)C1CC1` [Compound 121], for which the EC50 is under 0.001 µM.

In the case of `CC(C)[C@@H](NC(=O)C1CC1)C(=O)N1CCC[C@H]1C(=O)NCc1ccc(C#Cc2cnc([C@@H]3CCCN3C(=O)[C@H](NC(=O)C3CC3)C(C)C)[nH]2)cc1` [Compound 122], the EC50 lay in the range of 0.001 to 0.0099 µM.

As to `COC(=O)N[C@@H](C(=O)N1CCC[C@H]1c1ncc(C#Cc2ccc(-c3cnc([C@@H]4CCCN4C(=O)[C@@H](c4ccccc4)N(C)C)[nH]3)cc2)[nH]1)c1ccccc1` [Compound 123], the EC50 was under 0.001 µM.

Regarding `CC(C)(C)OC(=O)N[C@@H](C(=O)N1CCC[C@H]1C(=O)NCCc1ccc(C#Cc2cnc([C@@H]3CCCN3C(=O)[C@H](NC(=O)OC(C)(C)C)c3ccccc3)[nH]2)cc1)c1ccccc1` [Compound 124], the EC50 is under 0.001 µM.

For `O=C(N[C@@H](C(=O)N1CCC[C@H]1C(=O)NCCc1ccc(C#Cc2cnc([C@@H]3CCCN3C(=O)[C@H](NC(=O)C3CC3)c3ccccc3)[nH]2)cc1)c1ccccc1)C1CC1` [Compound 125], the EC50 was under 0.001 µM.

Take `CC(C)[C@@H](NC(=O)OC(C)(C)C)C(=O)N1CCC[C@H]1C(=O)NCCc1ccc(C#Cc2cnc([C@@H]3CCCN3C(=O)[C@H](NC(=O)OC(C)(C)C)C(C)C)[nH]2)cc1` [Compound 126]: the EC50 was in the range of 0.01 to 0.999 µM.

For the molecule `CC(C)[C@@H](NC(=O)C1CC1)C(=O)N1CCC[C@H]1C(=O)NCCc1ccc(C#Cc2cnc([C@@H]3CCCN3C(=O)[C@H](NC(=O)C3CC3)C(C)C)[nH]2)cc1` [Compound 127], the EC50 was 0.01 to 0.999 µM.

For `COC(=O)N[C@@H](C(=O)N1CCC[C@H]1c1ncc(-c2ccc(C#Cc3cnc([C@@H]4CCCN4C(=O)[C@@H](c4ccccc4)N(C)C)[nH]3)cc2)[nH]1)c1ccccc1` [Compound 128], the EC50 was under 0.001 µM.

Take `C[C@@H](NC(=O)[C@@H]1CCCN1C(=O)[C@H](NC(=O)OC(C)(C)C)c1ccccc1)c1ccc(C#Cc2cnc([C@@H]3CCCN3C(=O)[C@H](NC(=O)OC(C)(C)C)c3ccccc3)[nH]2)cc1` [Compound 129]: the EC50 is 0.01 to 0.999 µM.

As for `C[C@H](NC(=O)[C@@H]1CCCN1C(=O)[C@H](NC(=O)OC(C)(C)C)c1ccccc1)c1ccc(C#Cc2cnc([C@@H]3CCCN3C(=O)[C@H](NC(=O)OC(C)(C)C)c3ccccc3)[nH]2)cc1` [Compound 130], the EC50 was 0.01 to 0.999 µM.

Regarding `CN(C)[C@@H](C(=O)N1CCC[C@H]1c1ncc(-c2ccc(C#Cc3cnc([C@@H]4CCCN4C(=O)[C@H](NC(=O)C4CC4)c4ccccc4)[nH]3)cc2)[nH]1)c1ccccc1` [Compound 131], the EC50 was under 0.001 µM.

On to `C[C@H](NC(=O)[C@@H]1CCCN1C(=O)[C@H](NC(=O)C1CC1)c1ccccc1)c1ccc(C#Cc2cnc([C@@H]3CCCN3C(=O)[C@H](NC(=O)C3CC3)c3ccccc3)[nH]2)cc1` [Compound 132], for which the EC50 fell in the range of 0.01 to 0.999 µM.

As to `CN(C)[C@@H](C(=O)N1CCC[C@H]1c1ncc(C#Cc2ccc(-c3cnc([C@@H]4CCCN4C(=O)[C@H](NC(=O)C4CC4)c4ccccc4)[nH]3)cc2)[nH]1)c1ccccc1` [Compound 133], the EC50 was under 0.001 µM.

Turning to `COC(=O)N[C@H](C(=O)N1CCC[C@H]1c1ncc(C#Cc2ccc(-c3cnc([C@@H]4CCCN4C(=O)[C@@H](NC(=O)OC)C(C)C)[nH]3)cc2)[nH]1)C(C)C` [Compound 134], the EC50 was under 0.001 µM.

With `C[C@@H](NC(=O)[C@@H]1CCCN1C(=O)[C@H](NC(=O)C1CC1)c1ccccc1)c1ccc(C#Cc2cnc([C@@H]3CCCN3C(=O)[C@H](NC(=O)C3CC3)c3ccccc3)[nH]2)cc1` [Compound 135], the EC50 is over 1 µM.

For the molecule `CC(C)(C)OC(=O)N[C@@H](C(=O)N1CCC[C@H]1c1ncc(-c2ccc(C#Cc3ccc(-c4cnc([C@@H]5CCCN5C(=O)[C@H](NC(=O)OC(C)(C)C)c5ccccc5)[nH]4)cc3)cc2)[nH]1)c1ccccc1` [Compound 150], the EC50 is under 0.001 µM.

`C[C@@H](NC(=O)OC(C)(C)C)C(=O)N1CCC[C@H]1c1ncc(-c2ccc(C#Cc3ccc(-c4cnc([C@@H]5CCCN5C(=O)[C@@H](C)NC(=O)OC(C)(C)C)[nH]4)cc3)cc2)[nH]1` [Compound 151]: the EC50 lay in the range of 0.01 to 0.999 µM.

As for `CC(C)[C@@H](NC(=O)OC(C)(C)C)C(=O)N1CCC[C@H]1c1ncc(-c2ccc(C#Cc3ccc(-c4cnc([C@@H]5CCCN5C(=O)[C@H](NC(=O)OC(C)(C)C)C(C)C)[nH]4)cc3)cc2)[nH]1` [Compound 152], the EC50 is 0.01 to 0.999 µM.
